ChEMBL document CHEMBL1201862, “PubChem BioAssay data set” (2004)
The source made the active and inactive calls.

Experiments:
Beta-lactamase [1] = target: Beta-lactamase (Salmonella choleraesuis (strain SC-B67), UniProt Q5J463); assay: Epi-absorbance-based counterscreen for selective VIM-2 inhibitors: dose response biochemical high throughput screening assay to identify inhibitors of TEM-1 serine-beta-lactamase.
Beta-lactamase [2] = target: T1, Beta-lactamase (Pseudomonas aeruginosa, UniProt Q79MP6); assay: IMP-1 metallo-beta-lactamase inhibitors, dose response, selectivity assay for VIM-2 inhibitor project, biochemical, epi-absorbance (AID 1920)
Beta-lactamase [3] = target: T1, Beta-lactamase; assay: […] counterscreen for selective VIM-2 inhibitors: dose response biochemical high throughput screening assay to identify inhibitors of IMP-1 metallo-beta-lactamase.
[4] = inhibitors of intracellular T. cruzi replication, confirmation, NIH3T3 host cells, beta-gal luminescence (AID 2044); format: functional, cell-based;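 also: intracellular parasites grown in NIH/3T3 mouse fibroblasts as host cells; luminescent beta-galactosidase reporter signal from transgenic T. cruzi replicating inside host cells; inhibitors lower the luminescence signal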
[5] = microbe, parasite or virus in culture; format: functional; conditions: Mycobacterium tuberculosis
[6] = cytotoxicity toward NIH3T3 fibroblasts, dose response, counter-screen, cell-based, ATP luminescence, mouse fibroblasts (AID 2010); format: functional;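 also: cells exposed to compound for about 90 hours before reading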
INS1 = assay: beta cell apoptosis inhibitors, cytokine rescue, dose response, luminescence, retest (AID 449756); format: functional, cell-based; conditions: Rattus norvegicus, INS1;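 also: cell death triggered by IL-1 beta plus TNF-alpha plus IFN-gamma mixture; protective hits raise ATP signal compared with cytokine alone wells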
[7] = inhibitors of HIV Env-driven cell fusion, dose response, cherry-pick (AID 652057); format: functional, cell-based
[8] = CEM21 lymphoblast cell cytotoxicity, dose response, cytotoxicity control for viral fusion inhibitor project, CellTiter-Glo luminescence, cherry-picked (AID 652042); format: functional, cell-based;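 also: potency for signal decrease meaning cytotoxicity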
[9] = ZM109 Env clade C HIV-1 fusion inhibitors, dose response, HeLa effector, CEM target cells, luciferase, cherry-pick (AID 652058); format: functional, cell-based
[10] = off-target signal loss in HeLa-CEM21 co-culture – HeLa F-luc CTL cells, cherry-picked, counter-screen for HIV-1 Env fusion inhibitor project, dose response (AID 652040); format: functional, cell-based;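 also: potency for signal decrease marking cytotoxic or nonspecific inhibition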
[11] = inhibitors of clade B AD8 Env fusion, dose response, cell-based, cherry-pick (AID 652062); format: functional;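 also: luciferase signal from cell-cell fusion driven by HIV-1 clade B AD8 Env; potency is for inhibitors of fusion seen as a drop in luminescence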
Vero = assay: Vero cell toxicity, dose response, cytotoxicity control, plate reader, cherry-pick samples (AID 687020); format: functional, cell-based; conditions: Chlorocebus sabaeus
[12] = DNA binding of candidate compounds, dose response, artefact control for RAD54 inhibitor project, biochemical, fluorescence polarization, cherry-pick (AID 651673); format: functional
[13] = target: T2, Small ubiquitin-related modifier 1 (Homo sapiens, UniProt P63165); assay: inhibitors of SUMO1 peptide binding, dose response, biochemical, fluorescence polarization, uHTS hits (AID 624382); format: functional; conditions: read-out: IC50_Mean
[14] = target: T2, Small ubiquitin-related modifier 1; assay: inhibitors of SUMO1 partner interactions, dose response, biochemical, FRET (AID 624383); format: functional; conditions: read-out: IC50_Mean
[15] = target: T3, Corticotropin-releasing factor receptor 2/Corticotropin-releasing factor-binding protein (Homo sapiens, UniProt P24387+Q13324); assay: activators of CRF receptor 2 with binding protein – uHTS hits, confirmation (AID 602473); format: functional; conditions: read-out: EC50_Mean
T3 sequence (Q13324 whole entry): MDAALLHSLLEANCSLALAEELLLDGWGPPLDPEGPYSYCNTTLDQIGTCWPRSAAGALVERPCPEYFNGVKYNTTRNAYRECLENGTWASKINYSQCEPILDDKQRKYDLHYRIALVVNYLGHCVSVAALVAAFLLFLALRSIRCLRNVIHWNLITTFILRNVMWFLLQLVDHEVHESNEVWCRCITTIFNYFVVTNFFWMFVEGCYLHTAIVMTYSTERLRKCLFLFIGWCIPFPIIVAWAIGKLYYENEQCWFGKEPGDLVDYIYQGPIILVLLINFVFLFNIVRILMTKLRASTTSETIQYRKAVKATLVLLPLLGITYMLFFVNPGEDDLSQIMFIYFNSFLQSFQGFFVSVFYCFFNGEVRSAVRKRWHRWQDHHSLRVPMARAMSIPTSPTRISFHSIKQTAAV
T3 sequence (P24387 whole entry): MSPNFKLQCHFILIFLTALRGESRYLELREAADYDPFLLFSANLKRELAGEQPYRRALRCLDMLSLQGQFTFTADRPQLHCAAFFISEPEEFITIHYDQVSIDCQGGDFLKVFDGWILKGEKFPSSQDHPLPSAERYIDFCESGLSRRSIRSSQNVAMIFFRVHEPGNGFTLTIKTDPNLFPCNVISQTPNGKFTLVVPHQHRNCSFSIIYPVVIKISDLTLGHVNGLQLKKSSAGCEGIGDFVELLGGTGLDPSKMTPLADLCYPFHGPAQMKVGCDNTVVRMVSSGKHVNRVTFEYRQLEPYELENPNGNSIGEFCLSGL

[16] = HEK293T cell cytotoxicity, dose response, cytotoxicity control for HIV Vif inhibitor project, cherry-picks (AID 652208); format: functional, cell-based

Beta-lactamase (Salmonella choleraesuis (strain SC-B67), UniProt Q5J463), sequence (Q5J463 whole entry): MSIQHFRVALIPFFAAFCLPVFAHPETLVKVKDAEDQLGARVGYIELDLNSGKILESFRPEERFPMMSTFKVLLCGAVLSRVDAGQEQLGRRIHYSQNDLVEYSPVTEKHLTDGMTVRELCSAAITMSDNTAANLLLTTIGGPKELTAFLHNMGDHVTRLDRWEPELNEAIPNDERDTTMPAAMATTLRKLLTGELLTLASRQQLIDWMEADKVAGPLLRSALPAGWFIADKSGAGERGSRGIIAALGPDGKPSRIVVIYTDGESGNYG
T1 sequence (Q79MP6 whole entry): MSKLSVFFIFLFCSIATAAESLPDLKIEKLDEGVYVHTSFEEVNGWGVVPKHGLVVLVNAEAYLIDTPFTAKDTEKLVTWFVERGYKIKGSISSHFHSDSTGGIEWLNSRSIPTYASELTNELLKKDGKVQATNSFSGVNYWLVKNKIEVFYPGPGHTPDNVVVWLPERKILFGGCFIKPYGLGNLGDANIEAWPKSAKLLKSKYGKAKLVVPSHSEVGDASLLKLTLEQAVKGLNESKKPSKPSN
T2 sequence (P63165 whole entry): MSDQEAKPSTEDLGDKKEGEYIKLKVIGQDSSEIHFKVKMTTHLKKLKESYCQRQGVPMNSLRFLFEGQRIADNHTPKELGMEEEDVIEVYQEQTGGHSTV

Which results are given for `S=c1[nH]nc(Cn2c(-c3ccccn3)nc3ccccc32)n1-c1ccc2c(c1)OCCO2`?
IC50 (Beta-lactamase [1]): > 59.6 µM (inactive); IC50 (Beta-lactamase [2]): > 59.6 µM (inactive); IC50 (Beta-lactamase [3]): > 59.6 µM (inactive)

For `S=C(NCc1ccc(Cl)cc1)NC12CC3CC(CC(C3)C1)C2`, which EC50 [4] is on record?
Its EC50 is 3.41 µM (active).

And the CC50 [5]?
The CC50 was 18.8 µM (active).

And the EC50 [6]?
The EC50 was > 60 µM (not active).

And the AC50 (INS1)?
Its AC50 is 5.6 µM (active).

What about the AC50 [7] of the same compound?
The AC50 was 4.88 µM (active).

And the AC50 [8]?
The AC50 was 31.8 µM (active).

What about the AC50 [9] of the same compound?
Its AC50 is 6.05 µM (active).

What about the AC50 [10] of the same compound?
The AC50 was 13.1 µM (active).

What about the AC50 [11] of the same compound?
Its AC50 is 8.99 µM (active).

For `Cc1ccc(CNC(=O)C2CCC(=O)N(CCc3ccccn3)C2)s1` (configuration not stated), which AC50 (Vero) is on record?
Its AC50 is 35.6 µM (active).

For `CCn1c(-c2nn(-c3ccccc3)ccc2=O)n[nH]c1=S`, which IC50 (Beta-lactamase [1]) is on record?
Its IC50 is > 59.6 µM (inactive).

And the IC50 (Beta-lactamase [2])?
Its IC50 is > 59.6 µM (inactive).

What about the IC50 (Beta-lactamase [3]) of the same compound?
The IC50 was > 59.6 µM (inactive).

Which AC50 [12] does the source give for `Cc1nc2oc3c(O)ncnc3c2c2c1COC(C)(C)C2` here?
Its AC50 is 67.1 µM (active).

Which results are given for `COc1ccccc1-n1c(S)nnc1-c1ccco1`?
IC50 (Beta-lactamase [1]): > 59.6 µM (inactive); IC50 (Beta-lactamase [2]): > 59.6 µM (inactive); IC50 (Beta-lactamase [3]): > 59.6 µM (inactive)

With `CCCCCCC(=O)Nc1nc(C)c(-c2csc(Nc3cc(Cl)ccc3C)n2)s1` as the compound, how does the IC50 [13] read?
Its IC50 is > 66.6 µM (inactive).

And the IC50 [14]?
The IC50 was 10.1 µM (active).

For `O=C(Nc1ccc(C(=O)OC2CCCCC2)cc1)c1ccncc1`, which AC50 [8] is on record?
The AC50 was 64.2 µM (active).

What about the AC50 [10] of the same compound?
The AC50 was > 70 µM (inactive).

And the AC50 [11]?
The AC50 was 13.8 µM (active).

Which results are given for `Cc1ccc(CNC(=O)c2cccc3c2C(=O)c2ccc(N4CCC(C)CC4)cc2S3(=O)=O)cc1`?
EC50 [15]: 5.51 µM (active); AC50 [16]: 39.3 µM (active)
